Assays:
D-Apt49 [1] = experiment: Redox-mediated catalytic cyclic voltammetry titration with aptamer; type: binding; conditions: specificity / enantioselectivity test, Figure 2B
Procedure: (§1) All experiments were performed in 5 mM Tris buffer (pH 7) containing 10 mM MgCl2 and 50 mM NaCl (Recognition Buffer, RBr). The L-Tym concentration is always 5 µM. For cyclic voltammetric experiments, 1 µM [Os(bpy)3]2+ with 5 µM 1-Tym in a droplet of 50 µL RBr was used. So, before each experiment, the droplet is shaking with a micropipette. This procedure is repeated until we obtain a reproducible and stable voltammogram. Mother solution of Fc-1-Tym was a […] solution in DMF. This product is conserved at 4°C and seal with parafilm. Before each experiment, this solution is diluted 10 times in stabilized DMF, such as 0.2 µL in 50 µL of RBr leads to 5 µM of Fc-1-Tym.
(§2) Cyclic voltammetry measurements were performed with an AUTOLAB PGSTAT 12 potentiostat/galvanostat controlled by computer, and the data were acquired using GPES 4.9007 software (EcoChemie, The Netherlands). Small self-contained electrochemical cells made of 3 screen-printed electrodes on a flat substrate were used for all experiments. The electrodes were printed using a DEK model-65 screen-printer. Working electrodes were 4 mm diameter screen-printed carbon electrodes prepared using a commercial carbon ink (Electrodag PF-470 A) deposited on the top of an underlying Ag layer (Electrodag 418 SS). Counter electrode was obtained using an Ag ink (Electrodag 418 SS).
(§3) Before experiments, the screen-printed carbon electrodes were coated with bovine serum albumin (BSA) by immersing the electrodes in a 1 mg/mL BSA solution for 10 minutes at room temperature. The BSA-modified electrodes were next cycled between 0 V and 0.8 V at v = 0.05 V/s, until of the capacitive background current in cyclic voltammetry was stablized.
The 49-mer aptamer we have used (see here above) is a sequence similar to the one that was previously selected by Vianini et al and successfully applied to chromatographic- and fluorescence-based L-Tym assays. Since direct electrochemical oxidation of phenolic compounds generally leads to electrode passivation and thus to poorly reproducible anodic peak current in cyclic voltammetry (CV), the electrochemical detection of L-Tym was performed by redox-mediated catalytic oxidation of the phenolic function. For such a purpose, we have used the one-electron redox mediator couple [Os^III/II(bpy)3]^3+/2+ which, according to its relatively high standard potential (E^0=+0.58 V vs. Ag/AgCl), is capable to efficiently catalyze the oxidation of phenolic compounds. [drawing 51]
The linear dependence of the peak current with both the square root of scan rate, v, and L-Tym concentration, indicates conditions of total catalysis for which the catalytic peak current response, ip, can be expressed by eq 1. ip = 0.609nFSCT^0 sqrt(DT)sqrt(fv/RT) [formula] where n is the number of electron involved in the catalytic reaction, F the Faraday constant, S the electrode area, C^0T the bulk concentration of L-Tym, and DT the diffusion coefficient of L-Tym. After aptamer addition, the binding reaction (eq 2) is rapidly set at equilibrium. [drawing 53] with Kd the dissociation constant. On the basis of a classical law of action mass and mass balance (i.e., C^0T = CT + CRT, with CT and CRT the free and receptor-bound target concentrations), and assuming a 1:1 binding stoichiometry, the free (χƒ) mole fraction of target in the bulk solution can thus be estimated by eq 3. χf = (CT)/(CT^0) = 1-(Kd + CT^0 + CR^0 -sqrt(((Kd+CT^0+CR^0))^2 -4CT^0 CR^0))/(2CT^0) [formula]
Here, C^0R is the total concentration of the aptamer receptor added to the solution. Under the assumption of a slow interconversion of free and bound target on the time scale of CV experiments, the catalytic peak current can thus be expressed by a linear combination of the catalytic currents related to the free and bound target through eq 4. ip = 0.609nFSCT^0 sqrt(fv/RT)[χfsqrt(DT)+(1-χf)sqrt(DRT)] [formula] where DT and DRT are the diffusion coefficients of the free and receptor-bound target, respectively. […]

D-Apt49 [2] = experiment: Homogeneous electrochemical competitive binding assay in Tris buffer
Procedure: as §1, §2, §3
The competitive assay can be described by the two equilibrated binding reactions 6a and 6b, in which Fc-L-Tym is L-tyrosinamide labeled by a redox-active ferrocene group. The ferrocenyl label was here incorporated on the ―OH position of the phenolic group (Scheme 1). Note that under this condition the catalytic oxidation of the phenolic residue is no more possible and only the ferrocene labeled molecule can be detected. [drawing 63] [drawing 64] with Kd = (CTCR)/CRT [formula] Kd^(*) = (CT^(*)CR)/CRT^(*) [formula] where CR is the concentration of free aptamer receptor. […] Ideally, the two binding constants should be as close as possible (Kd ≈ K^*d). The value of K^*d was determined by monitoring in CV the reversible response of 5 µM Fc-L-Tym solution as a function of increasing concentrations of D-Apt49.
The competitive binding assay was achieved from two separate solutions containing a starting mixture of 5 µM Fc- L-Tym and 3 µM or 10 µM D-Apt49, and to which an increasing amount of L-Tym was added. […]

L-Apt49 [3] = experiment: Redox-mediated catalytic cyclic voltammetry titration with mirror-image aptamer; type: binding; conditions: nonlinear fit of eq 5; catalytic peak current, Tris buffer
Procedure: as §1
Cyclic voltammetry measurements were performed with an AUTOLAB PGSTAT 12 potentiostat/galvanostat controlled by computer, and the data were acquired using GPES 4.9007 software (EcoChemie, The Netherlands). Small self-contained electrochemical cells made of 3 screen-printed electrodes on a flat substrate were used for all experiments. […]
From the combination of eqs 3 and 5 and knowledge of the catalytic peak currents determined both in the absence of aptamer (ip^0) [formula] and at extrapolated infinite aptamer concentration (ip^(∞)), [formula] we can write eq 5 which allows to predict the normalized peak current response decreases as a function of aptamer and target concentrations. […]

D-Apt49 [4] = experiment: Cyclic voltammetry titration of ferrocene-labeled target with aptamer; type: binding; conditions: 5 µM Fc-L-Tym, increasing D-Apt49, Tris buffer pH 7.0; fit of eq 5; also used as predetermined value in competitive fits
Procedure: as §1
Cyclic voltammetry measurements were performed with an AUTOLAB PGSTAT 12 potentiostat/galvanostat controlled by computer, and the data were acquired using GPES 4.9007 software (EcoChemie, The Netherlands). […]
The competitive assay can be described by the two equilibrated binding reactions 6a and 6b, in which Fc-L-Tym is L-tyrosinamide labeled by a redox-active ferrocene group. […] Note that under this condition the catalytic oxidation of the phenolic residue is no more possible and only the ferrocene labeled molecule can be detected. […] The value of K^*d was determined by monitoring in CV the reversible response of 5 µM Fc-L-Tym solution as a function of increasing concentrations of D-Apt49. […]

D-Apt49 [5] = experiment: Homogeneous electrochemical competitive binding assay in 20% fetal bovine serum
Procedure: • Figure 1: Electrochemically competitive assay of the invention. Left-hand column: before the addition of the sample: a first redox signal is measured. Right-hand column: after the addition of a sample containing the target to be detected or measured: a second redox signal is measured. (A) Homogeneous electrochemically competitive assay: the presence of the target disrupts the complex formed between the oligonucleotide ligand and the redox-labeled target. […] (B) Heterologous electrochemically competitive assay, wherein the oligonucleotide ligand is attached to a solid phase: the presence of the target disrupts the complex formed between the oligonucleotide ligand and the redox-labeled target, thereby inducing a better detection of the redox labeled-target. […] (C) Heterologous electrochemically competitive assay, wherein the oligonucleotide ligand is attached to the electrode: the presence of the target disrupts the complex formed between the oligonucleotide ligand and the redox-labeled target, thereby reducing the detection of the redox labeled-target. […] (f) CV of 1 µM [Os(bpy)3]^2+ alone. […] Error bars: standard deviations from 3 measurements. Plain lines: fits of eq 5 to the experimental data. • Figure 3: (A) CVs (v = 0.05 V s^-1) of 5 mM Tris buffer (pH 7.0) containing 50 mM NaCl, 10 mM Mg^2+, 5 µM Fc-L-Tym and (a) 0 µM, (b) 1 µM, (c) 2 µM, (d) 3 µM, (e) 4 µM (f) 5 µM (g) 7.5 µM (h) 10 µM (i) 12.5 µM and (j) 15 µM of D-Apt49. (B) Normalized anodic peak current response as a function of aptamer concentration. Each data is the average of 3 measurements. Error bars are standard deviations. Plain line: fit of eq 5 to the experimental data. • Figure 4: Competitive binding curves performed in (A) 5 mM Tris buffer (pH 7 + 50 mM NaCl + 10 mM MgCl2) or (B) 20% fetal bovine serum (simply diluted with a 4 mM MgCl2 aqueous solution) as a function of (●, ★, ▼, Δ) L-Tym or (○) D-Tym concentration. (*) Assay of 5 µM L-Tym in the presence of 5 mM D-Tym. The Fc-L-Tym concentration was always C^0T*= 5 µM, whereas the D-Apt49 concentrations were C^0R: (●) 3, (★,○,*) 10, (▼) 40 and (Δ) 100 µM.
The enantiospecificity of the assay was next characterized using the same methodology but for solutions containing the D-Tym enantiomer. […] To evaluate the enantiospecific performance of the aptamer, the assay of trace amount of L-Tym in the presence of a large excess of D-Tym was examined and, as reported in Figure 4A, it has been found possible to detect as low as 5 µM L-Tym in the presence of 5 mM D-Tym. This remarkable performance means that as low as 0.1 % of an enantiomeric impurity in a nonracemic mixture can be assayed in a very short analysis time (<1 min). This is competitive with conventional separation techniques, and one order of magnitude lower than the 1% currently attainable by NMR. Finally, the ability to perform an assay under realistic biological conditions was examined. For such purpose, homogenous electrochemical competitive binding assays of 5-fold diluted fetal bovin serum samples spiked with known amounts of […] were then performed (Figure 4B).

L-Apt49 [6] = experiment: Cyclic voltammetry of ferrocene-labeled target with mirror-image aptamer; type: binding; conditions: not shown

With `NC(=O)[C@H](N)Cc1ccc(O)cc1` [D-Tym, d-tyrosinamide] the “catalytic current response upon the addition of D-Apta49” value (D-Apt49 [1]) was “no significant catalytic current response decrease”, the “displacement of Fc-L-Tym from D-Apt49” value (D-Apt49 [2]; 0-100 µM concentration range, 10 µM D-Apt49, Tris buffer) was “no displacement” and the response change (D-Apt49 [2]; concentrations as high as few millimolar) was “without significant response change”. The Kd (L-Apt49 [3]) was 3.8 ± 0.7 µM.
In the case of `N[C@@H](Cc1ccc(O)cc1)C(=O)O` [L-tyrosine], the “catalytic current response upon the addition of D-Apta49” value (D-Apt49 [1]) is reported as “no significant catalytic current response decrease”.
`NC(=O)[C@@H](N)Cc1ccc(O[c-]2cccc2)cc1.[Fe+2].c1cc[cH-]c1` [Fc-L-Tym, O-Ferrocenyltyrosynamide] was tested, and the Kd (D-Apt49 [4]) was 1.2 ± 0.4 µM, the Kd (D-Apt49 [5]; 5-fold diluted fetal bovine serum, average of the fitted curves, read-out: K^*d (average value)) was 75 µM and the Kd (D-Apt49 [5]; 20% fetal bovine serum, 5 µM Fc-L-Tym, 40 µM D-Apt49, read-out: K^*d) was 75 µM. For the same compound, the Kd (D-Apt49 [5]; 20% fetal bovine serum, 5 µM Fc-L-Tym, 100 µM D-Apt49, read-out: K^*d) was 75 µM and the “current change in the presence of L-Apt49” value (L-Apt49 [6]) was “absence of current change”.
In the case of `CC(=O)Nc1ccc(O)cc1` [paracetamol], the “catalytic current response upon the addition of D-Apta49” value (D-Apt49 [1]) is reported as “no significant catalytic current response decrease”.
